Measurements taken from article PMC10252614 (International Journal of Molecular Sciences, 2023).

Assays:
human AChE (hAChE) = target: T1, human AChE (hAChE) (Homo sapiens, UniProt P22303); test: hAChE inhibition, modified Ellman's method; type: biochemical; conditions: read-out: % of AChE inhibition
T1 construct: made in house
Description: (§1) N-Methylpropargylamine-quinazolines were tested for their inhibitory potency against human AChE (hAChE) and human BChE (hBChE) enzymes using the modified spectrophotometric method of Ellman et al..
(§2) The human recombinant BChE and AChE were prepared at the Department of Toxicology and Military Pharmacy (Faculty of Military Health Sciences, Hradec Kralove, Czech Republic). 5,5′-dithiobis(2-nitrobenzoic acid) (Ellman’s reagent, DTNB), phosphate buffer (PB, pH 7.4), acetylthiocholine (ATC) and butyrylthiocholine (BTC), were purchased from Sigma-Aldrich, Prague, Czech Republic. For measuring purposes, polystyrene Nunc 96-well microplates with a flat-bottom shape (ThermoFisher Scientific, Waltham, MA, USA) were utilized. All the assays were carried out in 0.1 M KH2PO4/K2HPO4 buffer, pH 7.4. Enzyme solutions were prepared at 2.0 units/mL in 2 mL aliquots. The assay medium consisted of a 0.1 M phosphate buffer (pH 7.4), 0.01 M DTNB, the enzyme, and 0.01 M substrate (ATC/BTC iodide solution). Concentration 1 µM was tested and the % of inhibition was calculated. Tested compounds were pre-incubated for 5 min. The reaction was started by immediate addition of 20 μL of the substrate. […] Each concentration was assayed in triplicate. Software GraphPad Prism 5 (San Diego, CA, USA) was used for the statistical data evaluation.

human BChE (hBChE) = target: T2, human BChE (hBChE) (Homo sapiens, UniProt P06276); test: hBChE inhibition, modified Ellman's method; type: biochemical; conditions: 10^-6 M
T2 construct: made in house
T2 sequence (P06276 29-602): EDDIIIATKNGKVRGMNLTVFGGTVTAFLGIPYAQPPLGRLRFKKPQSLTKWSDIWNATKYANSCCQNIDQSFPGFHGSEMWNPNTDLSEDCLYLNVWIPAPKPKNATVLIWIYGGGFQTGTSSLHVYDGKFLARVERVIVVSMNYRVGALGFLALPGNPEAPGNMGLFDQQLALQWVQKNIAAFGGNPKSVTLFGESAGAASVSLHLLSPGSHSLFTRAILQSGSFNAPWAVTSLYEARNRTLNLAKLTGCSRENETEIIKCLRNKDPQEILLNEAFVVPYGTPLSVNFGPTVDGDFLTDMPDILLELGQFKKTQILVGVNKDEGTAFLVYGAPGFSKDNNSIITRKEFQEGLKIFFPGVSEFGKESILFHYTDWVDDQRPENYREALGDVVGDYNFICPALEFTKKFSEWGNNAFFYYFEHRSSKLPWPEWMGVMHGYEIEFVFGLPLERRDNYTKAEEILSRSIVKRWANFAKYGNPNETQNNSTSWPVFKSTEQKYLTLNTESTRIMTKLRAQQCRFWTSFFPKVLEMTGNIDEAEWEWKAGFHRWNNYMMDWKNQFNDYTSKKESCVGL
Description: as §1, §2

in vitro = conditions: human
GluN1/GluN2B receptor = target: T3, GluN1/GluN2B receptor (Homo sapiens, UniProt Q05586+Q13224); test: whole-cell patch-clamp on HEK293 cells expressing GluN1/GluN2B NMDAR; type: cell-based; conditions: HEK293, 10 µM, −60 mV, ± SEM (n = 5–6), 100% = full inhibition; read-out: Relative inhibition (RI) of GluN1/GluN2B NMDAR
T3 construct: expressed in transfected cells; host or cells: HEK293
T3 sequence (Q13224 27-1484, other chains not shown): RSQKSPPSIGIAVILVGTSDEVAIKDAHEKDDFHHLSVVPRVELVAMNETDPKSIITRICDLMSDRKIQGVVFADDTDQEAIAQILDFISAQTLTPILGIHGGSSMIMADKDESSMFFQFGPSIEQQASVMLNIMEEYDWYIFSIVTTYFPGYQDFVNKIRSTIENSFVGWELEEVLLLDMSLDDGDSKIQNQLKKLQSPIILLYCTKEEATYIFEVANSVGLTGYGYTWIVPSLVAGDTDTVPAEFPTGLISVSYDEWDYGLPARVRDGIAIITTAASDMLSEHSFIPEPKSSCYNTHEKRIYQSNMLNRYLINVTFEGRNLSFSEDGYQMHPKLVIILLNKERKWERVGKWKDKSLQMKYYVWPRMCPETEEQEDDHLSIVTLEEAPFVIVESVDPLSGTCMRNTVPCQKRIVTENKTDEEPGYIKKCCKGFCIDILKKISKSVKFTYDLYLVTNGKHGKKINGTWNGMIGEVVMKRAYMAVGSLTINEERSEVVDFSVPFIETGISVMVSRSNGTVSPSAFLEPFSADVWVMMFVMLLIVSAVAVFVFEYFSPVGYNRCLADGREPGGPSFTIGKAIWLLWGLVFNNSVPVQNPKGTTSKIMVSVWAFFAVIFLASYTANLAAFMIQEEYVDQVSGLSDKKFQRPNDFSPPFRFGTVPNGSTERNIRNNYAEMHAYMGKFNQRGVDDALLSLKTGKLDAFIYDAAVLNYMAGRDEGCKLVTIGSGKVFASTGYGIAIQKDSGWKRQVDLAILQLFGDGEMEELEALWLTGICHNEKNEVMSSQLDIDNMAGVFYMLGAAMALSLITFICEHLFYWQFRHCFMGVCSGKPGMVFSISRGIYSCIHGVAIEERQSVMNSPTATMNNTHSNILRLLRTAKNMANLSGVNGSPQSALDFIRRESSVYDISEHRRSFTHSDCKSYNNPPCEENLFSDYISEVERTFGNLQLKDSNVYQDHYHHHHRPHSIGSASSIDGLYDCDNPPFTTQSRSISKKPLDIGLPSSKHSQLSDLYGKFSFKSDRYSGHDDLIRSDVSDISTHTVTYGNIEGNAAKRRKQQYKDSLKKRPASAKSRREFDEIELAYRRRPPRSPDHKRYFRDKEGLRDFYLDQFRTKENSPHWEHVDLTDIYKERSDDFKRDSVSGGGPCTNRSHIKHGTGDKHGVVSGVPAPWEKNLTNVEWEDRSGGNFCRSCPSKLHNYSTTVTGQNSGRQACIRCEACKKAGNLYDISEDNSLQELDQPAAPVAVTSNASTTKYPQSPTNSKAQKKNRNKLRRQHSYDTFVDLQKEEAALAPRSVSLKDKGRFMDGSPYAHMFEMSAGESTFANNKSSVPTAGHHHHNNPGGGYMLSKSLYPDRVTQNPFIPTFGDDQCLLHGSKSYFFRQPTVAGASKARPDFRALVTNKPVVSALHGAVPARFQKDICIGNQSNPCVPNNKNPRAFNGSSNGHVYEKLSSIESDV
Description: We tested the derivatives by the whole-cell patch-clamp method at a concentration of 10 μM under steady-state conditions in the presence of the saturating concentrations of NMDAR (co-)agonists (L-glutamate and glycine). […] Whole-cell patch-clamp recordings were performed using an Axopatch 200B amplifier (Molecular Devices, LLC., San Jose, CA, USA) at a holding membrane potential of −60 mV. HEK293 cells were co-transfected with DNA vectors encoding human versions of the GluN1-4a (GluN1) and GluN2B subunits and green fluorescent protein (GFP) in a 1:1:1 ratio using 0.9 μL PolyMag reagent (OZ Biosciences SAS, Marseille, France) in 50 μL Opti-MEM I [56, 57]. After 15 min on a magnetic plate, HEK293 cells were trypsinized and resuspended in Opti-MEM I medium containing 1% FBS, 2 mM MgCl2 and 3 mM kynurenic acid (to reduce cell death caused by activation of NMDARs). Electrophysiological measurements were performed 24–48 h after completion of transfection at room temperature. The extracellular recording solution (ECS) contained (in mM): 160 NaCl, 2.5 KCl, 10 HEPES, 10 D-glucose, 0.2 EDTA, and 0.7 CaCl2 (pH 7.3 with NaOH). […] A microprocessor-controlled rapid perfusion system with a time constant for solution exchange around the recorded cell of ~20 ms was used. Currents were low-pass filtered at 2 kHz using an eight-pole Bessel filter, digitized at 5 kHz, and recorded using the pCLAMP 10 program (Molecular Devices, LLC., San Jose, CA, USA). The co-agonist glycine (100 µM) was applied throughout the recording, and the agonist L-glutamate (1 mM) was used to elicit responses of GluN1/GluN2B receptors.

T1 sequence (P22303 32-614): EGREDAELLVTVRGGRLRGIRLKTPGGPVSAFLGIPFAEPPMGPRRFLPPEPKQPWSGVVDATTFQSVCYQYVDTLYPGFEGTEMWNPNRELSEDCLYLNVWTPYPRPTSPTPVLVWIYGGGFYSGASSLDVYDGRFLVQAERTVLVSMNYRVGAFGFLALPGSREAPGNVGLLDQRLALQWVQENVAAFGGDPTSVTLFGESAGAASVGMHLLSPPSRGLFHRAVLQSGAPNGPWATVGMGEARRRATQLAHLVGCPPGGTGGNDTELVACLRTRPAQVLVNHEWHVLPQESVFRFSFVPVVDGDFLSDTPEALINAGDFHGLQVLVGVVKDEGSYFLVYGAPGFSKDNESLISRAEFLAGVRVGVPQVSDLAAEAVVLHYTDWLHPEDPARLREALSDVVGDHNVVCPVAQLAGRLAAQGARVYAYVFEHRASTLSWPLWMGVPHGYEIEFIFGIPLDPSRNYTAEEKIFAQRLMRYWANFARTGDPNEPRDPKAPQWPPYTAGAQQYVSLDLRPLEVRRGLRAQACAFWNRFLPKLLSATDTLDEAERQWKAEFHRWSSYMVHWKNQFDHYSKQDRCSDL

Row | Compound | inhibition at 1 µM (human AChE (hAChE)) [%] | inhibition at 1 µM (human BChE (hBChE)) [%] | IC50 at 24 h (in vitro) [µM] | inhibition at 10 µM (GluN1/GluN2B receptor) [%]
1 | C#CCN(C)c1nc(NC)c2cc(OC)ccc2n1 [III-6b, 6-methoxy-N2,N4-dimethyl-N2-(prop-2-yn-1-yl)quinazoline-2,4-diamine] | 4 | 1 |  | 
2 | C#CCN(C)c1nc(N)c2ccc(Cl)cc2n1 [II-6a, 7-chloro-N2-methyl-N2-(prop-2-yn-1-yl)quinazoline-2,4-diamine] | 7 | 2 |  | 
3 | Nc1c2c(nc3ccccc13)CCCC2 [THA, tacrine, reference compound] |  |  | 122.11 ± 0.02 | 
4 | C#CCN(C)c1nc(NCCOC)c2ccccc2n1 [I-6f, N4-(2-methoxyethyl)-N2-methyl-N2-(prop-2-yn-1-yl)quinazoline-2,4-diamine] | 5 | 1 |  | 
5 | C#CCN(C)c1nc(NC2CC2)c2ccc(Cl)cc2n1 [II-6g, 7-chloro-N4-cyclopropyl-N2-methyl-N2-(prop-2-yn-1-yl)quinazoline-2,4-diamine] | 4 | 0 |  | 
6 | C#CCN(C)c1nc(NC)c2ccc(Cl)cc2n1 [II-6b, 7-chloro-N2,N4-dimethyl-N2-(prop-2-yn-1-yl)quinazoline-2,4-diamine] | 15 | 2 |  | 
7 | C#CCN(C)c1nc(NC(C)C)c2cc(OC)ccc2n1 [III-6d, 6-methoxy-N2-methyl-N2-(prop-2-yn-1-yl)-N4-(propan-2-yl)quinazoline-2,4-diamine] | 2 | 2 |  | 
8 | C#CCN(C)c1nc(NC2CC2)c2cc(OC)ccc2n1 [III-6g, N4-cyclopropyl-6-methoxy-N2-methyl-N2-(prop-2-yn-1-yl)quinazoline-2,4-diamine] | 5 | 0 |  | 
9 | C#CCN(C)c1nc(NC(C)C)c2ccccc2n1 [I-6d, N2-methyl-N2-(prop-2-yn-1-yl)-N4-(propan-2-yl)quinazoline-2,4-diamine] | 4 | 1 |  | 
10 | C#CCN(C)c1nc(NC2CC2)c2ccccc2n1 [I-6g, N4-cyclopropyl-N2-methyl-N2-(prop-2-yn-1-yl)quinazoline-2,4-diamine] | 4 | 2 |  | 
11 | C#CCN(C)c1nc(NCC)c2cc(OC)ccc2n1 [III-6c, N4-ethyl-6-methoxy-N2-methyl-N2-(prop-2-yn-1-yl)quinazoline-2,4-diamine] | 7 | 2 |  | 
12 | C#CCN(C)c1nc(NCCCC)c2cc(OC)ccc2n1 [III-6e, N4-butyl-6-methoxy-N2-methyl-N2-(prop-2-yn-1-yl)quinazoline-2,4-diamine] | 8 | 1 |  | 
13 | C#CCN(C)c1nc(NCC)c2ccc(Cl)cc2n1 [II-6c, 7-chloro-N4-ethyl-N2-methyl-N2-(prop-2-yn-1-yl)quinazoline-2,4-diamine] | 4 | 0 |  | 
14 | C#CCN(C)c1nc(N)c2ccccc2n1 [I-6a, N2-methyl-N2-(prop-2-yn-1-yl)quinazoline-2,4-diamine] | 5 | 0 |  | 
15 | COc1ccc2nc3c(c(N)c2c1)CCCC3 [7-MEOTA, reference compound] |  | 18 |  | ~60
16 | C#CCN(C)c1nc(NCC)c2ccccc2n1 [I-6c, N4-ethyl-N2-methyl-N2-(prop-2-yn-1-yl)quinazoline-2,4-diamine] | 4 | 0 |  | 
17 | C#CCN(C)c1nc(NCCOC)c2ccc(Cl)cc2n1 [II-6f, 7-chloro-N4-(2-methoxyethyl)-N2-methyl-N2-(prop-2-yn-1-yl)quinazoline-2,4-diamine] | 9 | 2 |  | 
18 | C#CCN(C)c1nc(NC)c2ccccc2n1 [I-6b, N2,N4-dimethyl-N2-(prop-2-yn-1-yl)quinazoline-2,4-diamine] | 5 | 3 |  | 
19 | C#CCN(C)c1nc(NC2CCCCC2)c2cc(OC)ccc2n1 [III-6h, N4-cyclohexyl-6-methoxy-N2-methyl-N2-(prop-2-yn-1-yl)quinazoline-2,4-diamine] | 3 | 2 |  | 
20 | C#CCN(C)c1nc(NCCOC)c2cc(OC)ccc2n1 [III-6f, 6-methoxy-N4-(2-methoxyethyl)-N2-methyl-N2-(prop-2-yn-1-yl)quinazoline-2,4-diamine] | 6 | 1 |  | 
21 | C#CCN(C)c1nc(NC(C)C)c2ccc(Cl)cc2n1 [II-6d, 7-chloro-N2-methyl-N2-(prop-2-yn-1-yl)-N4-(propan-2-yl)quinazoline-2,4-diamine] | 1 | 3 |  | 
